# Assay results: article PMC11783601, “Analogue-Sensitive Inhibition of Histone Demethylases Uncovers Member-Specific Function in Ribosomal Protein Synthesis” (Journal of the American Chemical Society, 2025)
# Read-outs that look alike come from different tables or passages of the source.
# Columns and labels:
# NO66 = molecular target: T1, NO66 (Homo sapiens, UniProt Q9H6W3); test: MALDI-based assay for C14orf169 (NO66) histidyl hydroxylation of peptide; format: biochemical; conditions: MALDI-TOF, peptide substrate
# T1 construct: we recombinantly expressed the catalytic domains of 12 wild type dioxygenases; Tev His Flag (C); host or cells: E. coli BL21 (DE3)
# Experimental: MALDI-based assay for C14orf169 (NO66) and MINA: To monitor the enzymatic activity of
# C14orf169 and MINA recombinant proteins, previous methods were utilized.10-11 Briefly, 10 µM
# each recombinant protein was incubated with 10 µM peptide substrate (NH2-
# Ascorbic Acid, 100 µM Iron (II), 50mM HEPES pH 7.5, and 200 µM L-Leu NOG or equivalent
# volume of water in 10 µL water. Aliquots were kept on ice for 10 minutes before addition of 200
# (§1) µM 2OG or equivalent volume of water. After 30-60 minutes incubation at 37 °C, 1 µL sample and
# (§2) 1 µL S-DHB matrix were spotted on a MALDI plate and monitored with Bruker FlexControl in
# the reflectron positive mode and analyzed on Bruker FlexAnalysis software. […]
# TET2 = test: MALDI-based assay for TET2 on 5-mC DNA substrate; format: biochemical, human; conditions: MALDI-TOF, 5mC oligonucleotide
# Experimental: Aliquots were kept on ice for 10 minutes before addition of 200
# as §1, §2
# the reflectron positive mode and analyzed on Bruker FlexAnalysis software. Relative inhibition
# was monitored via assessing percent product decrease with L-Leu NOG samples compared to no
# temperature for 10 minutes.
# KDM4E-F186A = molecular target: T2, KDM4E-F186A (Homo sapiens, UniProt B2RXH2, F186A); test: MALDI-MS demethylase assay on H3K9me3 peptide; format: biochemical
# T2 construct: we recombinantly expressed the catalytic domains of 12 wild type dioxygenases, in addition to KDM4A-E; 6xHis (N); host or cells: E. coli BL21 (DE3)
# Experimental: (§3) We next tested the inhibitory potential of 6 against these proteins using H3K9me3 peptide substrate and analyzed it by MALDI-MS. […] We subsequently examined the ability of asKDM4 variants to demethylate full-length histones extracted from mammalian cells. HEK293T cells were cultured in the presence of 10 μM n-octyl IOX1, a broad-spectrum inhibitor of demethylases,[41],[42] to generate a hypermethylated proteome (Figure S19). The extracted histone was incubated with the as variants individually, each with or without 6, and the extent of demethylation was analyzed by Western blot using the H3K9me3-specific antibody. […]
# (§4) assay (Biorad) kit with BSA concentrations as a standard. […]
# (§5) 8. Demethylase activity of the wild type and mutant KDM4 proteins on peptide substrate To monitor enzymatic activity, a demethylase activity assay was optimized and then observed through MALDI-TOF.7 Each histone demethylase assay sample included either wild type or mutant enzyme (10µM KDM4A, 7.5µM KDM4C, 10µM KDM4D, or 1µM KDM4E), 10 µM peptide, 200 µM 2OG, 50 mM Tris pH 8, […], 0-200µM NOG analogue, and 2 mM L-ascorbic acid with a total assay volume of 10 µL. Fe(II) supplement and L-ascorbic acid […]
# (§6) Lastly, the 2OG and peptide were […]
# (§7) positive mode and analyzed on Bruker FlexAnalysis software. The percent demethylated peptide […]
# (§8) the multiple demethylation events on the peptide. […]
# wild type KDM4E = molecular target: T3, wild type KDM4E (Homo sapiens, UniProt B2RXH2); test: MALDI-MS demethylase assay on H3K9me3 peptide; format: biochemical
# T3 construct: we recombinantly expressed the catalytic domains of 12 wild type dioxygenases, in addition to KDM4A-E; 6xHis (N); host or cells: E. coli BL21 (DE3)
# Experimental: as §3, §4, §5, §6, §7, §8
# KDM4C-F187A = molecular target: T4, KDM4C-F187A (Homo sapiens, UniProt Q9H3R0, F187A); test: MALDI-MS demethylase assay on H3K9me3 peptide; format: biochemical; conditions: 50 µM (Fig S14)
# T4 construct: 6xHis-tagged human KDM4C catalytic domain construct; 6xHis (N); made in house; host or cells: E. coli BL21 [DE3] star
# Experimental: as §3, §4, §5, §6, §7, §8
# wild type KDM4C = molecular target: T5, wild type KDM4C (Homo sapiens, UniProt Q9H3R0); test: MALDI-MS demethylase assay on H3K9me3 peptide; format: biochemical
# T5 construct: 6xHis-tagged human KDM4C catalytic domain construct; 6xHis (N); made in house; host or cells: E. coli BL21 [DE3] star
# Experimental: as §3, §4, §5, §6, §7, §8
# wild type KDM4D = molecular target: T6, wild type KDM4D (Homo sapiens, UniProt Q6B0I6); test: MALDI-MS demethylase assay on H3K9me3 peptide; format: biochemical
# T6 construct: human KDM4B and KDM4D jmjC catalytic domain for bacterial; Strep II (N); made in house; host or cells: E. coli Rosetta [DE3]
# Experimental: as §3, §4, §5, §6, §7, §8
# KDM4D-F189A = molecular target: T7, KDM4D-F189A (Homo sapiens, UniProt Q6B0I6, F189A); test: MALDI-MS demethylase assay on H3K9me3 peptide; format: biochemical; conditions: 50 µM (Fig S15)
# T7 construct: human KDM4B and KDM4D jmjC catalytic domain for bacterial; Strep II (N); made in house; host or cells: E. coli Rosetta [DE3]
# Experimental: as §3, §4, §5, §6, §7, §8
# wild type 2OG enzymes = test: Off-target activity across wild type 2OG enzymes (MALDI-MS or dot blots); format: biochemical, human; conditions: concentrations up to 200 μM
# From the text: We sought to examine the orthogonality of compound 6 across the human 2OG enzyme family. […] These amino acids, bulky and hydrophobic in nature, likely act as the gatekeeper and preclude binding of the NOG analogues to wild type enzymes. To test the off-target activity of 6, we recombinantly expressed the catalytic domains of 12 wild type dioxygenases, in addition to KDM4A-E, thus covering 30–40% of human 2OG enzymes known to have well-characterized substrates (Figure 3D).
# T7 sequence (Q6B0I6 146-312 F189A limits assumed): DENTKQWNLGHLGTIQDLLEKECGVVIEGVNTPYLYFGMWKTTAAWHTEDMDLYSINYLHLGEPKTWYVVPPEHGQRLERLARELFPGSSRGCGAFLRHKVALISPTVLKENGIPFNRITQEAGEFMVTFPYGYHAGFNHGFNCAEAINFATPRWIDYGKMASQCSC
# T5 sequence (Q9H3R0 144-310 limits assumed): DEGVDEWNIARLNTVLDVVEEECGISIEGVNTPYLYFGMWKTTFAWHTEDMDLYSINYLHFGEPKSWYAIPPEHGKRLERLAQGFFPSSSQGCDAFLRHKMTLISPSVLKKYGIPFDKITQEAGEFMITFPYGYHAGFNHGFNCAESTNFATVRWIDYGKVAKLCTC
# T6 sequence (Q6B0I6 146-312 limits assumed): as the sequence (Q6B0I6 146-312 F189A limits assumed) above, with A44F counted along it
# T4 sequence (Q9H3R0 144-310 F187A limits assumed): as the sequence (Q9H3R0 144-310 limits assumed) above, with F44A counted along it
# T1 sequence (Q9H6W3 294-439 limits assumed): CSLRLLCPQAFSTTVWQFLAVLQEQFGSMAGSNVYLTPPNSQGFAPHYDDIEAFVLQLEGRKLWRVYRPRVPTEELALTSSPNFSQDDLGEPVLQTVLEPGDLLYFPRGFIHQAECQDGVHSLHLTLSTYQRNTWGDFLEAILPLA
# T3 sequence (B2RXH2 143-309 limits assumed): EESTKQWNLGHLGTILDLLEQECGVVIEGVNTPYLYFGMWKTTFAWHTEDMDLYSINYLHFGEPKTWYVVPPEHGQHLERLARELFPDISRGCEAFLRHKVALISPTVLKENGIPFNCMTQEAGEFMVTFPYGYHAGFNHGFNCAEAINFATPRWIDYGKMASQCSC
# T2 sequence (B2RXH2 143-309 F186A limits assumed): as the sequence (B2RXH2 143-309 limits assumed) above, with F44A counted along it
structure (smiles),measurement,setting,value
"CC(C)CC(NC(=O)C(=O)O)C(=O)O (stereo not shown) [compound 6, N-oxalyl leucine]",inhibition of NO66,NO66,No inhibition
same,inhibition of TET2,TET2,No inhibition
same,inhibition of KDM4E-F186A,KDM4E-F186A,significantly inhibited
same,inhibition of wild type KDM4E,wild type KDM4E,fully refractory
same,inhibition of KDM4C-F187A,KDM4C-F187A,significantly inhibited
same,inhibition of KDM4C-F187A,KDM4C-F187A; listed as NOG 6,inhibits the mutant completely
same,inhibition of wild type KDM4C,wild type KDM4C,fully refractory
same,inhibition of wild type KDM4C,wild type KDM4C; listed as NOG 6,does not inhibit
same,inhibition of wild type KDM4D,wild type KDM4D,fully refractory
same,inhibition of wild type KDM4D,wild type KDM4D; listed as NOG 6,does not inhibit
same,inhibition of KDM4D-F189A,KDM4D-F189A,significantly inhibited
same,inhibition of KDM4D-F189A,KDM4D-F189A; listed as NOG 6,inhibits the mutant completely
same,inhibition of wild type 2OG enzymes,wild type 2OG enzymes,did not inhibit
